Experiments:
Type in all cases: in vivo
Heliothis virescens = assay: Action against Heliothis virescens caterpillars (sprayed soybean plants); conditions: 144 h, 400 ppm spray on young soybean plants, 10 caterpillars in the first stage, evaluation 6 days later, read-out: percentage reduction in population and percentage reduction in feeding damage (% activity)
Procedure: (§1) Young soybean plants are sprayed with an aqueous emulsion spray mixture comprising 400 ppm of test compound. After the spray-coating has dried, the soybean plants are populated with 10 caterpillars of Heliothis virescens in the first stage and placed in a plastics container. Evaluation is made 6 days later. The percentage reduction in population and the percentage reduction in feeding damage (% activity) are determined by comparing the number of dead caterpillars and the feeding damage on the treated plants with that on the untreated plants.

Spodoptera littoralis = assay: Action against Spodoptera littoralis (sprayed soybean plants); conditions: 72 h, 400 ppm spray on young soybean plants, 10 caterpillars in the first stage, 3 days later, read-out: percentage reduction in population and percentage reduction in feeding damage (% activity)
Procedure: Young soybean plants are sprayed with an aqueous emulsion spray mixture comprising 400 ppm of test compound and, after the spray-coating has dried, the plants are populated with 10 caterpillars of Spodoptera littoralis in the first stage and then placed in a plastics container. 3 days later, the percentage reduction in population and the percentage reduction in feeding damage (% activity) are determined by comparing the number of dead caterpillars and the feeding damage on the treated plants with that on untreated plants.

Plutella xylostella = assay: Action against Plutella xylostella caterpillars (sprayed cabbage plants); conditions: 72 h, 400 ppm spray on young cabbage plants, 10 caterpillars in the third stage, evaluation 3 days later, read-out: percentage reduction in population and percentage reduction in feeding damage (% activity)
Procedure: as §1, with “cabbage” for “soybean”, “Plutella xylostella” for “Heliothis virescens”, “third” for “first”, “3” for “6”

Measured: inhibition at 400 ppm

CCn1nnc(-c2ccc(OCCCOc3c(Cl)cc(OCC=C(Cl)Cl)cc3Cl)cc2)n1 [Compound 1.4, 5-(4-{3-[2,6-dichloro-4-(3,3-dichloro-allyloxy)-phenoxy]-propoxy}-phenyl)-2-ethyl-2H-tetrazole]
> 80%: all assays above

ClC(Cl)=CCOc1cc(Cl)c(OCCCOc2ccc(-c3cc(Cl)on3)cc2)c(Cl)c1 [Compound 1.17, 5-chloro-3-(4-{3-[2,6-dichloro-4-(3,3-dichloro-allyloxy)-phenoxy]-propoxy}-phenyl)-isoxazole]
> 80%: all assays above

ClC(Cl)=CCOc1cc(Cl)c(OCCCOc2ccc(-c3noc(Cl)n3)cc2)c(Cl)c1 [Compound 1.16, 5-chloro-3-(4-{3-[2,6-dichloro-4-(3,3-dichloro-allyloxy)-phenoxy]-propoxy}-phenyl)-[1,2,4]oxadiazole]
> 80%: all assays above

Source: patent publication US7608631B2, “4-(3,3-dihalo-allyloxy) phenol derivatives having pesticidal properties” (Syngenta Crop Protection, Inc., priority 2002, dated 2009)
